# Read-outs that look alike come from different tables or passages of the source.
# Tests used:
# male NMRI mice = test: Toxicity by means of Irwin's test, intraperitoneal; format: in vivo, mouse (NMRI); conditions: death of two out of three animals within 24 hours
# Procedure: The toxicity of the compounds according to the present invention has been determined in male NMRI mice by means of Irwin's test (S. IRWIN, Psychopharmacologia, 13, (1968), 222-257). Progressive doses of the compound to be tested are administered intraperitoneally to groups of three mice until the lethal dose is reached (dose which causes the death of two out of three animals within 24 hours).
# It can be seen from this Table that the compounds of the invention have a very low toxicity.
# [1] = tested on: presynaptic α2-adrenergic receptor (guinea-pig ileum); test: Inhibition of the contraction of the isolated guinea-pig ileum induced by electrical stimulation (presynaptic α2-adrenergic agonist properties); conditions: for IC50: concentration that reduces by 50% the intensity of the muscle contraction, electrical stimulation
# Excerpt: Stimulation of the guinea-pig ileum.
# Longitudinal muscle fragments attached to an isometric force indicator are immersed in Tyrode's solution and are stretched with a force of 1 g (G. M. DREW, Brit. J. Pharmacol. 64, (1978), 293-300; M. ANDREJAK et al., Naunyn-Schmiedeberg's Arch. Pharmacol. 314, (1980), 83-87).
# Electrical stimulation of the parasympathetic nerves associated with the ileum fragments causes a contraction of the muscle. This contraction is reduced in the presence of a presynaptic α2 -agonist and the magnitude by which the contraction is reduced depends on the concentration of the agonist used. This effect is antagonized by the simultaneous presence of an α2 -antagonist such as α-yohimbine.
# The compounds to be studied have been tested at increasing concentrations ranging from 10^-10 to 10^-3 mole/l. The concentration (IC50 in mole/l) that reduces by 50% the intensity of the muscle contraction is determined.
# Table I gives the IC50 concentrations (in mole/l) obtained for the compounds of the invention (except for compound 6, for which compound the IC30 concentration is given).
# [2] = tested on: intraocular pressure of the treated eye; test: Intraocular pressure variation in awake normotensive rabbits, treated eye; format: in vivo, rabbit (New Zealand White)
# Procedure: the 1st column indicates the compound tested,
# the 2nd column indicates the concentration of the compound, in percent (in weight per volume),
# the 3rd, 4th, 5th, 6th and 7th columns indicate the variation in intraocular pressure (ΔP) expressed in percent, with respect to an animal treated with a collyrium containing no compound to be tested, measured after 30 minutes, 1, 2, 3 or 6 hours respectively.
# [3] = tested on: mucous membrane of the treated eye (conjunctivae); test: Effect on the mucous membrane of the treated eye (hypohemia); format: in vivo, rabbit (New Zealand White)
# Excerpt: Hypohemia manifests itself by insufficient blood irrigation of the conjunctiva, which can result in irreversible local ischemias.
# [4] = background of the patent, cited from earlier work
# pupil diameter = test: Effect on the pupil diameter of the treated eye and of the contralateral eye; conditions: clonidine: ipsilateral eye at 0.1 and 0.5%; compounds of the invention: treated or contralateral eye at doses of Table II
# Procedure: The pupil diameters are measured visually at the point of maximal vertical diameter, using a millimetric metal standard.
# [5] = tested on: intraocular pressure of the contralateral eye
# Procedure: All the doses tested are administered to three rabbits (weight 2-2.5 kg) of both sexes according to a "cross-over" experimental protocol in which each animal is also used in the control group. […] The intraocular pressure is measured tonometrically with a BIORAD pneumatonograph (DIGILAB MODULAR ONE) after local anesthesia using 2 drops of a 0.4% (in weight per volume) solution of oxybuprocaine hydrochloride.
# [6] = ocular or topical use unless stated
# Procedure for heart rate: The compounds to be studied are administered as a solution in 30 microliters of sterile distilled water (collyrium) at concentrations ranging from 0 (reference) to 0.5% (in weight per volume).
structure (smiles),measurement,setting,value
"CC(C)NC(=N)c1cccc(Cc2c[nH]cn2)c1O [F, 2-hydroxy-3-(1H-imidazol-4-ylmethyl)-N-(1-methylethyl)-benzenecarboximidamide]",Lethal dose,male NMRI mice,155 mg/kg
same,IC50,[1],6400 nM
"N=C(NO)c1cccc(Cc2c[nH]cn2)c1O [C, N,2-dihydroxy-3-(1H-imidazol-4-ylmethyl)-benzenecarboximidamide]",Lethal dose,male NMRI mice,232 mg/kg
same,IC50,[1],140 nM
"N=C(N)c1cccc(Cc2c[nH]cn2)c1O [A, 2-hydroxy-3-(1H-imidazol-4-ylmethyl)-benzenecarboximidamide]","ΔP [30 min], variation in intraocular pressure",[2]; 0.05% w/v,-5.9%
same,"ΔP [2 h], variation in intraocular pressure",[2]; 0.05% w/v,-18.6%
same,"ΔP [6 h], variation in intraocular pressure",[2]; 0.05% w/v,-1.1%
same,"ΔP [30 min], variation in intraocular pressure",[2]; 0.1% w/v,-9.2%
same,"ΔP [2 h], variation in intraocular pressure",[2]; 0.1% w/v,-21.2%
same,"ΔP [6 h], variation in intraocular pressure",[2]; 0.1% w/v,-16.1%
same,Hypohemia of the treated eye,[3]; 0.1%,do not induce hypohemia
same,Lethal dose,male NMRI mice,> 216 mg/kg
same,IC50,[1],62 nM
CC(=O)Nc1nnc(S(N)(=O)=O)s1 [acetazolamide],Side-effects (in words),"[4]; carbonic anhydrase inhibitors, systemic administration","depression of the central nervous system, weight loss and, mainly, bone marrow hypofunction"
Clc1cccc(Cl)c1N=C1NCCN1 [clonidine],Change in the pupil diameter / mydriasis (in words),pupil diameter,causes an important mydriasis of the ipsilateral eye
same,Slowing of the heart rate,"heart rate; 0.01%, after 3 hours",10.7%
same,Slowing of the heart rate,"heart rate; 0.1%, after only 1 hour",17.9%
same,Biphasic effect on intraocular pressure (in words),[2],"initially induces hypertension of the treated eye, which effect increases with the concentration of the product"
same,"ΔP [30 min], variation in intraocular pressure",[2]; 0.01% w/v,+8.0%
same,"ΔP [2 h], variation in intraocular pressure",[2]; 0.01% w/v,-8.8%
same,"ΔP [6 h], variation in intraocular pressure",[2]; 0.01% w/v,-9.2%
same,"ΔP [30 min], variation in intraocular pressure",[2]; 0.1% w/v,+23.4%
same,"ΔP [2 h], variation in intraocular pressure",[2]; 0.1% w/v,+36.2%
same,"ΔP [3 h], variation in intraocular pressure",[2]; 0.1% w/v,+11.4%
same,"ΔP [30 min], variation in intraocular pressure",[2]; 0.5% w/v,+31.4%
same,"ΔP [2 h], variation in intraocular pressure",[2]; 0.5% w/v,+39.4%
same,"ΔP [3 h], variation in intraocular pressure",[2]; 0.5% w/v,+8.6%
same,Whitening of the conjunctivae,"[3]; 0.01%, after 30 minutes",whitening of the conjunctivae is observed after 30 minutes
same,Whitening of the conjunctivae,"[3]; 0.1%, after 1 hour",this effect is still present after 1 hour
same,Side-effects (in words),[4]; [6],"mydriasis, as well as an initial phase of ocular hypertension (biphasic effect)"
same,IC50,[1],17 nM
same,ΔP in the contralateral eye,"[5]; 0.01%, after 2 hours",-9.5%
same,ΔP in the contralateral eye,"[5]; 0.01%, after 6 hours",-9.2%
same,ΔP in the contralateral eye,"[5]; 0.1%, after 2 hours",-10.2%
same,ΔP in the contralateral eye,"[5]; 0.1%, after 6 hours",+2.6%
same,ΔP in the contralateral eye,"[5]; 0.5%, after 2 hours",-26.3%
same,ΔP in the contralateral eye,"[5]; 0.5%, after 6 hours",+15%
CNCC(O)c1ccc(OC(=O)C(C)(C)C)c(OC(=O)C(C)(C)C)c1 (stereo not shown) [dipivalylepinephrine],Side-effects (in words),[4]; [6],sensations of burning or irritation
"N=C(NN)c1cccc(Cc2c[nH]cn2)c1O [G, 2-hydroxy-3-(1H-imidazol-4-ylmethyl)-benzenecarboximidic acid hydrazide]",Lethal dose,male NMRI mice,416 mg/kg
same,"IC30, inhibition of the contraction of the guinea-pig ileum",[1]; IC30 printed in the IC50 column,2.5 µM
"CC(c1c[nH]cn1)c1cccc(C(=N)N)c1O (single isomer, unassigned; (-)) [E, (-)-2-hydroxy-3-[1-(1H-imidazol-4-yl)ethyl]-benzenecarboximidamide]","ΔP [30 min], variation in intraocular pressure",[2]; 0.5% w/v,-11.6%
same,"ΔP [1 h], variation in intraocular pressure",[2]; 0.5% w/v,-12.6%
same,"ΔP [6 h], variation in intraocular pressure",[2]; 0.5% w/v,-6.6%
same,Hypohemia of the treated eye,[3]; 0.5%,do not induce hypohemia
same,Lethal dose,male NMRI mice,248 mg/kg
same,IC50,[1],200 nM
"CC(c1c[nH]cn1)c1cccc(C(=N)N)c1O (single isomer, unassigned; (+)) [D, (+)-2-hydroxy-3-[1-(1H-imidazol-4-yl)ethyl]-benzenecarboximidamide]","ΔP [30 min], variation in intraocular pressure",[2]; 0.01% w/v,-14.1%
same,"ΔP [2 h], variation in intraocular pressure",[2]; 0.01% w/v,-17.7%
same,"ΔP [6 h], variation in intraocular pressure",[2]; 0.01% w/v,-15.1%
same,Lethal dose,male NMRI mice,25 mg/kg
same,IC50,[1],3.9 nM
"CNC(=N)c1cccc(Cc2c[nH]cn2)c1O [B, 2-hydroxy-3-(1H-imidazol-4-ylmethyl)-N-methyl-benzenecarboximidamide]","ΔP [30 min], variation in intraocular pressure",[2]; 0.5% w/v,-5.5%
same,"ΔP [1 h], variation in intraocular pressure",[2]; 0.5% w/v,-10.8%
same,"ΔP [2 h], variation in intraocular pressure",[2]; 0.5% w/v,-13.3%
same,"ΔP [3 h], variation in intraocular pressure",[2]; 0.5% w/v,-12.8%
same,"ΔP [6 h], variation in intraocular pressure",[2]; 0.5% w/v,-7.6%
same,Lethal dose,male NMRI mice,230 mg/kg
same,IC50,[1],2500 nM

# From US5385927A, “Hydroxy-3-[1-(1H-imidazol-4-yl)alkyl]-benzenecarboximidamides and their use in treating glaucoma” (priority 1993, dated 1995)
